Data as given in ChEMBL document CHEMBL1134316, “Identification of dipeptidyl nitriles as potent and selective inhibitors of cathepsin B through structure-based drug design” (J Med Chem, 2001).

Columns and labels:
Cathepsin B = Cathepsin B (Homo sapiens, UniProt P07858); experiment: Inhibitory activity against recombinant human cathepsin B (cat B) expressed in baculovirus.
Cathepsin S = Cathepsin S (Homo sapiens, UniProt P25774); experiment: Inhibitory activity against recombinant human cathepsin S (cat S) expressed in baculovirus
Procathepsin L = Procathepsin L (Homo sapiens, UniProt P07711); experiment: Inhibitory activity against recombinant human cathepsin L (cat L) expressed in baculovirus
Sequence of Procathepsin L (P07711 whole entry): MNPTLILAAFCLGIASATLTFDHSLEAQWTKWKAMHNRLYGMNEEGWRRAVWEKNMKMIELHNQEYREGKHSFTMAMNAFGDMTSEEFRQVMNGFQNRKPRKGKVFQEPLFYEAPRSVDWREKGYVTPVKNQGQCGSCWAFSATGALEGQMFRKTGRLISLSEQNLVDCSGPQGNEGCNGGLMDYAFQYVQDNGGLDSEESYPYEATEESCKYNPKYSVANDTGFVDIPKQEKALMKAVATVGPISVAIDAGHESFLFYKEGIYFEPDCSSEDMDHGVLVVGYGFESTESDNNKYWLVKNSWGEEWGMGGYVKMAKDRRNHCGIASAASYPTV

Sequence of Cathepsin S (P25774 whole entry): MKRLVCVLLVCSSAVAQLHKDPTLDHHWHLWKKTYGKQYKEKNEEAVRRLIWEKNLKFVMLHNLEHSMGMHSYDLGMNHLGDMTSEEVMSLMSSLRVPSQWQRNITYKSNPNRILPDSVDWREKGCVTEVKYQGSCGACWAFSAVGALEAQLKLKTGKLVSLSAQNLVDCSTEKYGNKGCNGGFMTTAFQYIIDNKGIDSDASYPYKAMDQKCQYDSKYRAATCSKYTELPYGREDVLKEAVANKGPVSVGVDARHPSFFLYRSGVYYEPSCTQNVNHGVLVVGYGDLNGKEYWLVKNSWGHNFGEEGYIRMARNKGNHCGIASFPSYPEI

| SMILES | IC50 (Cathepsin B) | IC50 (Cathepsin S) | IC50 (Procathepsin L) |
| --- | --- | --- | --- |
| N#CCNC(=O)[C@H](Cc1ccc(I)cc1)NC(=O)C(c1ccccc1)c1ccccc1 | > 1000 nM |  |  |
| N#CCNC(=O)[C@H](Cc1ccccc1)NC(=O)Cc1ccccc1 | 34000 nM | 226 nM | 170 nM |
| Cc1cccc(C[C@H](NC(=O)c2ccc(Cl)cc2)C(=O)NCC#N)c1 | 308 nM |  |  |
| N#CCNC(=O)[C@H](Cc1cccc(Cl)c1)NC(=O)C(c1ccccc1)c1ccccc1 | 130 nM |  |  |
| N#CCNC(=O)[C@H](Cc1ccccc1)NC(=O)C(c1ccccc1)c1ccccc1 | 496 nM | 48 nM | 31 nM |
| Cc1cccc(C[C@H](NC(=O)c2ccc(Cl)cc2F)C(=O)NCC#N)c1 | 72 nM |  |  |
| CCc1cccc(C[C@H](NC(=O)C(c2ccccc2)c2ccccc2)C(=O)NCC#N)c1 | 136 nM |  |  |
| Cc1cc(CN)cc(C[C@H](NC(=O)C(c2ccccc2)c2ccccc2)C(=O)NCC#N)c1 | 358 nM |  |  |
| N#CCNC(=O)[C@H](Cc1ccccc1)NC(=O)OCc1ccccc1 | 62000 nM |  |  |
| N#CCNC(=O)[C@H](Cc1cccc(I)c1)NC(=O)C(c1ccccc1)c1ccccc1 | 121 nM |  |  |
| N#CCNC(=O)[C@H](Cc1cccc(C(=N)N)c1)NC(=O)C(c1ccccc1)c1ccccc1 | > 1000 nM |  |  |
| Cc1cccc(C[C@H](NC(=O)c2ccc(F)cc2F)C(=O)NCC#N)c1 | 591 nM |  |  |
| Cc1cncc(C[C@H](NC(=O)C(c2ccccc2)c2ccccc2)C(=O)NCC#N)c1 | 652 nM |  |  |
| Cc1cc(C)cc(C[C@H](NC(=O)C(c2ccccc2)c2ccccc2)C(=O)NCC#N)c1 | 11.9 nM |  |  |
| Cc1cccc(C[C@H](NC(=O)c2ccc(Cl)c(Cl)c2)C(=O)NCC#N)c1 | 31.3 nM |  |  |

The next lines start with the values.

| IC50 (Cathepsin B) | IC50 (Cathepsin S) | IC50 (Procathepsin L) | SMILES |
| --- | --- | --- | --- |
| 16.9 nM |  |  | Cc1cccc(C[C@H](NC(=O)c2ccc(Cl)cc2F)C(=O)N[C@H](C#N)COCc2ccccc2)c1 |
| 18 nM |  |  | Cc1cccc(C[C@H](NC(=O)C(c2ccccc2)c2ccccc2)C(=O)N[C@H](C#N)CCCc2cccc(C(=O)O)c2)c1 |
| 1900 nM |  |  | Cc1cccc(C[C@H](NC(=O)c2ccccc2)C(=O)NCC#N)c1 |
| 29 nM |  |  | Cc1cccc(C[C@H](NC(=O)C(c2ccccc2)c2ccccc2)C(=O)N[C@H](C#N)COCc2cccc(CO)c2)c1 |
| 3000 nM |  |  | CCCCC(=O)N[C@@H](Cc1cccc(C)c1)C(=O)NCC#N |
| 138 nM |  |  | Cc1cccc(C[C@H](NC(=O)C(c2ccccc2)c2ccccc2)C(=O)N[C@H](C#N)CCOc2cccc(C(=O)O)c2)c1 |
| 5.6 nM |  |  | Cc1cccc(C[C@H](NC(=O)C(c2ccccc2)c2ccccc2)C(=O)N[C@H](C#N)CC#Cc2cccc(C(=O)O)c2)c1 |
| 47 nM |  |  | COC(=O)c1cccc(COC[C@@H](C#N)NC(=O)[C@H](Cc2cccc(C)c2)NC(=O)C(c2ccccc2)c2ccccc2)c1 |
| 35.7 nM |  |  | CCCCC(=O)N[C@@H](Cc1cccc(C)c1)C(=O)N[C@H](C#N)COCc1cccc(C(=O)O)c1 |
| 42 nM |  |  | Cc1cccc(C[C@H](NC(=O)c2ccc(F)cc2F)C(=O)N[C@H](C#N)COCc2ccccc2)c1 |
| 30.7 nM |  |  | Cc1cccc(C[C@H](NC(=O)C(c2ccccc2)c2ccccc2)C(=O)N[C@H](C#N)COCc2ccc(C(=O)O)cc2)c1 |
| 9.4 nM |  |  | Cc1cccc(C[C@H](NC(=O)c2ccccc2)C(=O)N[C@H](C#N)COCc2cccc(C(=O)O)c2)c1 |
| 110 nM |  |  | Cc1cccc(C[C@H](NC(=O)c2ccc(F)cc2F)C(=O)N[C@H](C#N)CCCc2cccc(C(=O)O)c2)c1 |
| 10.2 nM |  |  | Cc1cccc(C[C@H](NC(=O)C(c2ccccc2)c2ccccc2)C(=O)N[C@H](C#N)COCc2ccccc2)c1 |
| 2 nM |  |  | Cc1cccc(C[C@H](NC(=O)c2ccc(Cl)cc2F)C(=O)N[C@H](C#N)COCc2cccc(C(=O)O)c2)c1 |
